Reference: PubChem BioAssay AID1645871

Settings: pampa; pH 5.0; 30.0 min; 50.0 µM

**Q.** With CC[C@H]1CN2CCC3CC(OC)C(OC)CC3[C@@H]2C[C@@H]1C[C@H]1NCCC2=C1CC(OC)=C(O)C2 (some centres undefined) as the compound, how does the Papp read?
**A.** The Papp was 179 nm/s.

**Q.** With CCN1CCN(c2ncc3c(n2)CCN(Cc2cc(Br)cs2)C3)CC1 as the compound, how does the Papp read?
**A.** The Papp was 771 nm/s.

**Q.** Which Papp does the source give for COc1ccc(C(=O)N2CCCC(c3nn(-c4ccc(OC)cc4)c(=O)[nH]3)C2)cc1 (centres undefined) here?
**A.** The Papp was 2550 nm/s.

**Q.** Which Papp does the source give for O=C(NCCCO)c1ccc(-c2ncc3cnc(-c4cccc(F)c4)cn23)cc1 here?
**A.** Its Papp is 212 nm/s.

**Q.** With NC1(c2ccccc2Cl)CCCCC1=O (centres undefined) as the compound, how does the Papp read?
**A.** Its Papp is 111 nm/s.

**Q.** With CCC1=Nc2cc(C(=O)NC3CCCC3)ccc2Sc2ccc(Cl)cc21 as the compound, how does the Papp read?
**A.** Its Papp is 6400 nm/s.

**Q.** Which Papp does the source give for Cc1cccc(S(=O)(=O)c2cn(Cc3ccccc3)c3cc(N4CCCC(C)C4)c(F)cc3c2=O)c1 (centres undefined) here?
**A.** Its Papp is 8320 nm/s.

**Q.** With COc1ccc(-c2cc(-c3ccccc3)nc(SCC(=O)Nc3ccccc3C)c2C#N)cc1 as the compound, how does the Papp read?
**A.** The Papp was 5870 nm/s.

**Q.** For CCOC(=O)N1CCN(C(=O)Cn2sc3nc(C)cc(C)c3c2=O)CC1, which Papp is on record?
**A.** Its Papp is 190 nm/s.

**Q.** Which Papp does the source give for O=C(NCC1CCOCC1)C1CC(=O)N(c2n[nH]c3cc(Br)ccc23)C1 (centres undefined) here?
**A.** Its Papp is 106 nm/s.

**Q.** For CCOC(=O)c1ccc(NC(=O)N2Cc3[nH]cnc3C[C@H]2c2nc(C(C)C)no2)cc1, which Papp is on record?
**A.** Its Papp is 162 nm/s.

**Q.** For Cc1ccnc(NC(=S)N2CCN(c3ccc(N)cc3)CC2)c1, which Papp is on record?
**A.** Its Papp is 41.3 nm/s.

**Q.** For COc1ccc2c(c1)CCc1c-2n[nH]c1C(=O)N1CCc2c(nc3cc(-c4ccccc4)[nH]n3c2=O)C1, which Papp is on record?
**A.** Its Papp is 158 nm/s.

**Q.** With COc1cccc(CN2CCNc3cc(Nc4ccccc4)ncc3C2)c1 as the compound, how does the Papp read?
**A.** The Papp was 1870 nm/s.

**Q.** Which Papp does the source give for CCc1cccc(NC(=O)CSc2nc3ccccc3nc2N2CCCCC2)c1 here?
**A.** The Papp was 3510 nm/s.

**Q.** With CCCc1oc2ccc(NS(=O)(=O)c3ccc(OC)cc3)cc2c1C(=O)OCC as the compound, how does the Papp read?
**A.** The Papp was 18.4 nm/s.

**Q.** For NC(=O)c1ccc(-c2ncc3cnc(-c4cccc(F)c4)cn23)cc1, which Papp is on record?
**A.** Its Papp is 1350 nm/s.

**Q.** With Fc1ccc(CNc2cc3c(cn2)CN(Cc2ccncc2)CCN3)cc1 as the compound, how does the Papp read?
**A.** The Papp was 143 nm/s.

**Q.** With Cc1ccc(S(=O)(=O)Nc2ccccc2C(=O)Nc2nc(-c3ccccc3)cs2)cc1 as the compound, how does the Papp read?
**A.** The Papp was over 10000 nm/s.

**Q.** For CC(=O)N1CCc2c(sc3c2c(=O)n(-c2ccccc2Cl)c(=O)n3Cc2cccc(C)c2)C1, which Papp is on record?
**A.** The Papp was 6870 nm/s.

**Q.** Which Papp does the source give for CN(C)CC/C=C1\c2ccccc2Sc2ccc(Cl)cc21 here?
**A.** Its Papp is 5310 nm/s.

**Q.** Which Papp does the source give for Nc1c(-c2ccccc2)cc[nH]c1=O here?
**A.** The Papp was 768 nm/s.

**Q.** With COc1ccccc1Nc1ccnc(N2CCN(C(=O)c3ccc(F)cc3)CC2)n1 as the compound, how does the Papp read?
**A.** Its Papp is 8530 nm/s.

**Q.** For O=C(CCCN1CCC(O)(c2ccc(Cl)cc2)CC1)c1ccc(F)cc1, which Papp is on record?
**A.** The Papp was 3960 nm/s.

**Q.** Which Papp does the source give for Cc1nn2c(c1-c1ccccc1OCc1ccccc1)N(C(=O)Cc1ccc3c(c1)OCO3)CCC2 here?
**A.** Its Papp is over 10000 nm/s.

**Q.** With CN1C(=O)C(=O)N2C(=C[C@]3(c4c[nH]c5ccccc45)c4ccccc4N[C@H]23)C1=O as the compound, how does the Papp read?
**A.** Its Papp is 9860 nm/s.

**Q.** For Cc1ccc(NC(=O)c2c(N3CCCC3=O)c3cc(C)ccc3n2C)c(C)c1, which Papp is on record?
**A.** Its Papp is over 10000 nm/s.

**Q.** With Cc1ccc(-n2c(=O)c3oc4ccccc4c3n(CC(=O)Nc3ccc(F)c(Cl)c3)c2=O)cc1C as the compound, how does the Papp read?
**A.** Its Papp is 5830 nm/s.

**Q.** For CCc1ccc(C2C(C(=O)Nc3ccccc3OC)=C(C)Nc3c(C(=O)Nc4ccc(C)cc4)cnn32)cc1 (centres undefined), which Papp is on record?
**A.** The Papp was 2880 nm/s.

**Q.** With CCOC(=O)c1cnc2ccc(-c3cncc(NS(=O)(=O)c4ccccc4)c3)cn12 as the compound, how does the Papp read?
**A.** Its Papp is 5460 nm/s.

**Q.** For COc1ccc(-c2noc(CSc3nnc(Cc4ccccc4)n3-c3ccc(F)cc3)n2)cc1, which Papp is on record?
**A.** The Papp was over 10000 nm/s.

**Q.** Which Papp does the source give for CC(C)(N)C(=O)N[C@H](COCc1ccccc1)C(=O)N1CCC2(CC1)CN(S(C)(=O)=O)c1ccccc12 here?
**A.** The Papp was 275 nm/s.

**Q.** With COc1ccccc1Nc1cnc2ccc(-c3ccc(OC)c(OC)c3)nn12 as the compound, how does the Papp read?
**A.** The Papp was 6210 nm/s.

**Q.** For CCc1cc(Cl)c(OC)c(C(=O)NC[C@@H]2CCCN2CC)c1O, which Papp is on record?
**A.** Its Papp is 8990 nm/s.

**Q.** For Cc1ccc(-c2nc(C)c(C(=O)Nc3ccc4c(c3)C(=O)N3CCC[C@H]3C(=O)N4)s2)cc1, which Papp is on record?
**A.** Its Papp is 482 nm/s.

**Q.** With C[C@H]1CN(C(=O)c2nn(C)c3ccccc23)C[C@@H]1c1nc(-c2cccnc2)no1 as the compound, how does the Papp read?
**A.** Its Papp is 7390 nm/s.

**Q.** Which Papp does the source give for CN1CCCC(CC2c3ccccc3Sc3ccccc32)C1 (centres undefined) here?
**A.** Its Papp is over 10000 nm/s.

**Q.** For O=C(NCCc1cnc[nH]1)c1ccc(-c2ncc3cnc(-c4cccc(F)c4)cn23)cc1, which Papp is on record?
**A.** The Papp was 50.9 nm/s.

**Q.** Which Papp does the source give for CS(=O)(=O)c1ccc(-c2cnc(NCc3ccco3)n3cnnc23)cc1 here?
**A.** Its Papp is 136 nm/s.

**Q.** For CCCCCn1cc2c(c1-c1ccc(Br)cc1)c(=O)n(C)c(=O)n2C, which Papp is on record?
**A.** The Papp was 9460 nm/s.

**Q.** Which Papp does the source give for NC(=O)C1CCN(c2nccc(-c3ccc4c(c3)OCCO4)n2)CC1 here?
**A.** Its Papp is 1910 nm/s.

**Q.** Which Papp does the source give for Cc1nn2c(c1-c1ccccc1Oc1ccccc1)N(Cc1ccccc1O)CCC2 here?
**A.** Its Papp is 8790 nm/s.

**Q.** Which Papp does the source give for O=C(NCCCNc1nc(Nc2cccc(NC(=O)N3CCCC3)c2)ncc1I)c1cccs1 here?
**A.** Its Papp is 2340 nm/s.

**Q.** With CC(C)c1ccc(CC(=O)N2CCCc3ncc(C(=O)Nc4cccnc4)cc32)cc1 as the compound, how does the Papp read?
**A.** Its Papp is 9320 nm/s.

**Q.** For COc1cccc(C(=O)Nc2ccc3oc(-c4ccc5ccccc5c4)nc3c2)c1, which Papp is on record?
**A.** Its Papp is 7560 nm/s.

**Q.** For COC(=O)Nc1nc2ccc(C(=O)c3ccccc3)cc2[nH]1, which Papp is on record?
**A.** Its Papp is 4550 nm/s.

**Q.** For COc1ccccc1N1CCN(CCN(C(=O)c2ccc(F)cc2)c2ccccn2)CC1, which Papp is on record?
**A.** Its Papp is 730 nm/s.

**Q.** Which Papp does the source give for CCOc1ccc(CNC(=O)CCCn2nc(C)c3c(C)n(-c4ccc(C)cc4)nc3c2=O)cc1 here?
**A.** Its Papp is 5820 nm/s.

**Q.** For O=C(Nc1cccnc1)c1cccs1, which Papp is on record?
**A.** Its Papp is 1810 nm/s.

**Q.** Which Papp does the source give for CN(C)C(=O)NC1CCC(CCN2CCN(c3cccc(Cl)c3Cl)CC2)CC1 (centres undefined) here?
**A.** The Papp was 3500 nm/s.

**Q.** With O=C(NC1CCCN(c2cc(-c3ccc(F)cc3)[nH]n2)C1)c1ccc2ncccc2c1 (centres undefined) as the compound, how does the Papp read?
**A.** Its Papp is over 10000 nm/s.

**Q.** For Cc1cc(CNC(=O)c2ccc3c(c2)n(CC2CC2)c(=O)n3C2CCCCC2)on1, which Papp is on record?
**A.** The Papp was 8700 nm/s.

**Q.** Which Papp does the source give for CCc1ccc(-n2nc(C)c3c2NC(=O)CSC3c2ccccc2C)cc1 (centres undefined) here?
**A.** Its Papp is 7070 nm/s.

**Q.** With c1cc(-c2cc(-c3ccncc3)c3cncn3c2)c2cc[nH]c2c1 as the compound, how does the Papp read?
**A.** The Papp was 217 nm/s.
